According to patent US20040157280A1, “Antibody mediated ozone generation” (priority 2001, published 2004):
“Also recorded” adds a separate entry of the source.

Columns and labels:
E. coli = assay: Bactericidal assay, E. coli (strain not singled out); type: cell-based; conditions: for bactericidal activity (in words): HPIX 40 μM, white light 1 h, 4° C.
Procedure: (§1) In a typical experiment, a culture of E. coli (in log phase growth, OD600=0.2-0.3) was repeatedly pelleted (3×3,500 rpm) and resuspended in PBS (pH 7.4). The PBS suspended cells were then added to glass vials and cooled to 4° C. Hematoporphyrin IX (40 μM) and antibody (20 μM) were added and the vials were either placed on a light box (visible light, 2.8 mW cm^−2) or in the dark at 4° C. and incubated for 1 h. Viability was determined by recovery of colony forming units (CFUs) on agar plates. Each experiment was performed at least in duplicate.
as §1, with “washed in PBS by pelleting” for “pelleted”, “rpm) the cells” for “rpm)”, “resuspending them” for “resuspended”

human neutrophils (PMNs) = assay: Oxidation of indigo carmine 1 by activated human neutrophils; type: cell-based; conditions: indigo carmine 30 μM, PMNs 1.5×10^7 cell/mL, phorbol myristate 1 μg/mL, 37° C.
Procedure: FIG. 20A illustrates the time course of oxidation of indigo carmine 1 (30 μM) (Δ) and formation of 2 (▪) by human neutrophils (PMNs, 1.5×10^7 cell/mL) activated with phorbol myristate (1 μg/mL) in PBS (pH 7.4) at 37° C. No oxidation of indigo carmine 1 occurs with PMNs that are not activated (data not shown). Neutrophils were prepared as previously described. Hypochlorous acid (HOCl) is an oxidant known to be produced by neutrophils.
Human neutrophils were prepared as described by M. Markert, P. C. Andrews, and B. M. Babior Methods Enzymol. 105, 358 (1984). Following activation with phorbol myristate (1 μg/mL), the neutrophils (1.5×10^7 cells/mL) produced an oxidant species that oxidatively cleaves indigo carmine 1 to isatin sulfonic acid 2 (FIG. 19 and FIG. 20B). Hypochlorous acid (HOCI) is an oxidant that is known to be produced by neutrophils.

[1] = Long-term near-UV photo-production of H2O2 with catalase cycles; type: biochemical
Procedure: FIG. 8A illustrates the production of H2O2 by immunoglobulins and non-immunoglobulin proteins. Assays were performed by near-UV irradiation (312 nm, 800 μW cm^−2) of individual antibody/protein samples (100 μL, 6.7 μM) in phosphate-buffered saline (PBS) [10 mM sodium phosphate, 150 mM NaCl (pH 7.4)] in a sealed glass vial on a transilluminator (Fischer Biotech) under ambient aerobic conditions at 20EC. Aliquots (10 μL) were removed at timed intervals throughout the assay. H2O2 concentration was determined by the amplex red method. […]
FIG. 8B illustrates the long-term production of H2O2 by sheep poly-IgG (6.7 μM, 200 μL). […] H2O2 concentration was measured as described in FIG. 8A. […]
FIG. 8E illustrates the long-term inhibition of antibody photo-production of H2O2 by H2O2 and complete re-establishment of activity after removal of H2O2. […] H2O2 fo rmation throughout the assay was measured by the amplex red assay. […]
FIG. 11B provides the effect of chloride ion on antibody-mediated photo-production of H2O2. […] Aliquots (10 μL) were removed throughout the assay and the H2O2 concentration determined by the amplex red assay. […]

[2] = Hydrogen peroxide production by UV-irradiated antibody/protein (Amplex Red assay); type: biochemical; conditions: UV irradiation in PBS
Procedure: Antibody/Protein Irradiation. Unless otherwise stated, the assay solution (100 μl, 6.7 μM protein in PBS, pH 7.4) was added to a glass vial, sealed with a screw-cap, and irradiated with either UV (312 nm, […] Fischer-Biotech transilluminator) or visible light.
Quantitative Assay for Hydrogen Peroxide. An aliquot (20 μl) from the protein solution was removed and added into a well of a 96-well microtiter plate (Costar) containing reaction buffer (80 μl). Working solution (100 μl/400 μM Amplex Red reagent ½ units/ml horseradish peroxidase) was then added, and the plate was incubated in the dark for 30 min. The fluorescence of the well components was then measured using a CytoFluor Multiwell Plate Reader (Series 4000, PerSeptive Biosystems, Framingham, Mass.; Ex/Em: 530/580 nm). The hydrogen peroxide concentration was determined using a standard curve. All experiments were run in duplicate, and the rate is quoted as the mean of at least two measurements.
Denaturation. IgG 19G12 (100 μl, 6.7 μM) was heated to 100EC in an Eppendorf tube for 2 min. The resultant solution was transferred to a glass, screw-cap vial and irradiated with UV light for 30 min. The concentration of H2O2 was determined after 30 min.

In the case of `CC1=C(CCC(=O)O)c2cc3[nH]c(cc4nc(cc5[nH]c(cc1n2)c(C)c5C(C)O)C(C)=C4C(C)O)c(C)c3CCC(=O)O` (stereo not drawn) [hematoporphyrin IX], the “bactericidal activity (in words)” value (E. coli) is reported as “negligible bactericidal activity”.

In the case of `O=C1/C(=C2\Nc3ccc(S(=O)(=O)O)cc3C2=O)Nc2ccc(S(=O)(=O)O)cc21` [indigo carmine 1, indigo carmine], the “isatin sulfonic acid 2 formed” value (human neutrophils (PMNs)) is reported as 25.1 ± 0.3 µM.

In the case of `N[C@@H](Cc1c[nH]c2ccccc12)C(=O)O` [tryptophan], the “production of H2O2 during near-UV irradiation” value ([1]; tryptophan 20 μM) is reported as “ca. 0.5 mole equivalents”.

For “bovine serum albumin: bovine serum albumin”, the “bactericidal activity (in words)” value (E. coli) was “no bacterial killing”.

For catalase, the “protection against the bactericidal activity of non-specific antibodies” value (E. coli; catalase 13 mU/mL) was “complete protection; also recorded: completely attenuated the bactericidal activity”.

In the case of “chick ovalbumin: chick-egg ovalbumin from Sigma”, the “ability to reduce ^1O2 / generate H2O2 (in words)” value [2] is reported as “one of the most efficient proteins at reducing ^1O2”.

For “superoxide dismutase: enzyme obtained from Sigma”, the “ability to reduce ^1O2 / generate H2O2 (in words)” value [2] was “the same as irradiation of PBS alone; also recorded: do not reduce ^1O2”.

In the case of “β-galactosidase: enzyme from Sigma; most efficient non-immunoglobulin protein at H2O2 photo-production”, the “H2O2 generated by photo-production” value ([1]; near-UV, from its 39 Trp residues) is reported as 5.9 mol eq.

B1: RNase A: ribonuclease from Amersham Pharmacia (protein, UniProt P61823 27-150, looked up)
Ribonuclease pancreatic: KETAAAKFERQHMDSSTSAASSSNYCNQMMKSRNLTKDRCKPVNTFVHESLADVQAVCSQKNVACKNGQTNCYQSYSTMSITDCRETGSSKYPNCAYKTTQANKHIIVACEGNPYVPVHFDASV
For B1, the “ability to reduce ^1O2 / generate H2O2 (in words)” value [2] was “do not reduce ^1O2”.
